Results taken from patent publication US20120264735A1 (priority 2009, published 2012).

Target: T1, c-Met kinase (recombinant c-Met) (Homo sapiens, UniProt P08581)
T1 construct: 0.27 nM recombinant c-Met
Test: In vitro kinase assay I (homogeneous time-resolved fluorescence tyrosine kinase assay)
Assay type: biochemical
Summary of the method: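 Biotinylated peptide (0.5 μM) phosphorylated by 0.2 nM recombinant c-Met with 50 μM MgATP, 60 min at room temperature, pH 7.4, 5% DMSO. EDTA stop; HTRF read with Eu-anti-phosphotyrosine antibody and streptavidin-APC. IC50 from 4-parameter logistic fit.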

T1 sequence (P08581 25-1390): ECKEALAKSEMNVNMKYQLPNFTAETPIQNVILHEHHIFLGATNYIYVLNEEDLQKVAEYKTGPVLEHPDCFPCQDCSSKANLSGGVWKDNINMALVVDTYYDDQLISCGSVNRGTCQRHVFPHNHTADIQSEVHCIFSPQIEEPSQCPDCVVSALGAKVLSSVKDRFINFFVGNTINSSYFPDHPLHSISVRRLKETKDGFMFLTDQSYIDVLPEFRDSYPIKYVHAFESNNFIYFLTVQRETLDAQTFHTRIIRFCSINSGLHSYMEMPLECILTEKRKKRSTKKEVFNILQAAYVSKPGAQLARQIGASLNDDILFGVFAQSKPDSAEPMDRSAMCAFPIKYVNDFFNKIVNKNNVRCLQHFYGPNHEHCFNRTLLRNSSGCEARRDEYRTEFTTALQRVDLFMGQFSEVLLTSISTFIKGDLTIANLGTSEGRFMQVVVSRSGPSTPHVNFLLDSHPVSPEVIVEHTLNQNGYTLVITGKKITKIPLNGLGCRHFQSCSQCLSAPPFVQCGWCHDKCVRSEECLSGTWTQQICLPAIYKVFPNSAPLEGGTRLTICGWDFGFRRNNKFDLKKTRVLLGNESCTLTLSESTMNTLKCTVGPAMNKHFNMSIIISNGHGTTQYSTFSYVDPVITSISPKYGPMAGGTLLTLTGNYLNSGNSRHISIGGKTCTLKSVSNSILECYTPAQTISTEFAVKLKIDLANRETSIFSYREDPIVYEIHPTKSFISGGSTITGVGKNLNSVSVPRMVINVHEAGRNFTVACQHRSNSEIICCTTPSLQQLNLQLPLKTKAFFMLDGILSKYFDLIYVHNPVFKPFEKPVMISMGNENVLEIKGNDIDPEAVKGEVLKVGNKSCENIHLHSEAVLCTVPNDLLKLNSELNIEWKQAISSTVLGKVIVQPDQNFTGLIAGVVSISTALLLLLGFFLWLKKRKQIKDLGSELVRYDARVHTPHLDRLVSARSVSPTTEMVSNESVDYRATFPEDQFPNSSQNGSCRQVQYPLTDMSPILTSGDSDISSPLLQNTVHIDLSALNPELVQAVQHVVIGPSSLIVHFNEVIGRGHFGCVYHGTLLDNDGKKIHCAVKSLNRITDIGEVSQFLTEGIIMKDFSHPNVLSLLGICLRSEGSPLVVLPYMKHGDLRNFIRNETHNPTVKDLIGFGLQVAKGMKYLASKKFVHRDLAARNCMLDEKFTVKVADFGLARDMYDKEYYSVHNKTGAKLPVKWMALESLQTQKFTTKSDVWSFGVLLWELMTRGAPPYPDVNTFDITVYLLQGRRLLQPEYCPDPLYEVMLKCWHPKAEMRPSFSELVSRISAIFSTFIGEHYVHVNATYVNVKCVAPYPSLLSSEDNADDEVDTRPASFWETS

SMILES	IC50 [nM]
Cn1cc(-n2ccc(=O)c(Cc3cccc(-c4ncc(OCc5ccncc5)cn4)c3)n2)cn1 [Example 353, 1-(1-Methyl-1H-pyrazol-4-yl)-3-{3-[5(pyridin-4-ylmethoxy)pyrimidin-2-yl]benzyl}pyridazin-4(1H)-one]	< 100
Cn1cc(-n2ccc(=O)c(Cc3cccc(-c4ncc(OCc5ccccn5)cn4)c3)n2)cn1 [Example 354, 1-(1-methyl-1H-pyrazol-4-yl)-3-{3-[5-(pyridin-2-ylmethoxy)pyrimidin-2-yl]benzyl}pyridazin-4(1H)-one]	< 100
Cn1cc(-n2ccc(=O)c(Cc3cccc(-c4ncc(OCc5cccnc5)cn4)c3)n2)cn1 [Example 355, 1-(1-methyl-1H-pyrazol-4-yl)-3-{3-[5-(pyridin-3-ylmethoxy)pyrimidin-2-yl]benzyl}pyridazin-4(1H)-one]	< 100
Cn1cc(-n2ccc(=O)c(Cc3cccc(-c4ncc(OCc5ncn(C)n5)cn4)c3)n2)cn1 [Example 356, 1-(1-methyl-1H-pyrazol-4-yl)-3-(3-{5-[(1-methyl-1H-1,2,4-triazol-3-yl)methoxy]pyrimidin-2-yl}benzyl)pyridazin-4(1H)-one]	< 100
Cn1cc(-n2ccc(=O)c(Cc3cccc(-c4ncc(OCC(=O)O)cn4)c3)n2)cn1 [Example 357, [2-(3-{[1-(1-Methyl-1H-pyrazol-4-yl)-4-oxo-1,4-dihydropyridazin-3-yl]methyl}phenyl)pyrimidin-5-yl]oxyacetic acid]	< 100
Cn1cc(-n2ccc(=O)c(Cc3cccc(-c4ncc(OCC(C)(C)O)cn4)c3)n2)cn1 [Example 358, 3-{3-[5-(2-Hydroxy-2-methylpropoxy)pyrimidin-2-yl]benzyl}-1-(1-methyl-1H-pyrazol-4-yl)pyridazin-4(1H)-one]	< 100
CCn1cc(-n2ccc(=O)c(Cc3cccc(-c4ncc(OCC(C)(C)O)cn4)c3)n2)cn1 [Example 359, 1-(1-ethyl-1H-pyrazol-4-yl)-3-{3-[5-(2-hydroxy-2-methylpropoxy)pyrimidin-2-yl]benzyl}pyridazin-4(1H)-one]	< 100
CC(C)(O)COc1cnc(-c2cccc(Cc3nn(-c4ccc(F)c(F)c4)ccc3=O)c2)nc1 [Example 360, 1-(3,4-difluorophenyl)-3-{3-[5-(2-hydroxy-2-methylpropoxy)pyrimidin-2-yl]benzyl}pyridazin-4(1H)-one]	< 100
CC(C)(O)COc1cnc(-c2cccc(Cc3nn(-c4cccc(C#N)c4)ccc3=O)c2)nc1 [Example 361, 3-[3-{3-[5-(2-hydroxy-2-methylpropoxy)pyrimidin-2-yl]benzyl}-4-oxopyridazin-1(4H)-yl]benzonitrile]	< 100
CC(C)(O)COc1cnc(-c2cccc(Cc3nn(-c4cc(F)c(F)c(F)c4)ccc3=O)c2)nc1 [Example 362, 3-{3-[5-(2-hydroxy-2-methylpropoxy)pyrimidin-2-yl]benzyl}-1-(3,4,5-trifluorophenyl)pyridazin-4(1H)-one]	< 100
CC(C)(O)COc1cnc(-c2cccc(Cc3nn(-c4cc(F)cc(F)c4)ccc3=O)c2)nc1 [Example 363, 1-(3,5-difluorophenyl)-3-{3-[5-(2-hydroxy-2-methylpropoxy)pyrimidin-2-yl]benzyl}pyridazin-4(1H)-one]	< 100
Cn1cc(-n2ccc(=O)c(Cc3cccc(-c4ncc(OCC5(O)CCOCC5)cn4)c3)n2)cn1 [Example 365, 3-(3-{5-[(4-hydroxytetrahydro-2H-pyran-4-yl)methoxy]pyrimidin-2-yl}benzyl)-1-(1-methyl-1H-pyrazol-4-yl)pyridazin-4(1H)-one]	< 100
CC(C)(O)COc1cnc(-c2cccc(Cc3nn(-c4cc(Cl)cc(C#N)c4)ccc3=O)c2)nc1 [Example 371, 3-chloro-5-[3-{3-[5-(2-hydroxy-2-methylpropoxy)pyrimidin-2-yl]benzyl}-4-oxopyridazin-1(4H)-yl]benzonitrile]	< 100
CC(C)(O)COc1cnc(-c2cccc(Cc3nn(-c4ccc(C#N)cc4)ccc3=O)c2)nc1 [Example 372, 4-[3-{3-[5-(2-hydroxy-2-methylpropoxy)pyrimidin-2-yl]benzyl}-4-oxopyridazin-1(4H)-yl]benzonitrile]	< 100
O=c1ccn(-c2ccc(F)c(F)c2)nc1Cc1cccc(-c2ncc(OCC3(O)CCOCC3)cn2)c1 [Example 373, 1-(3,4-difluorophenyl)-3-(3-{5-[(4-hydroxytetrahydro-2H-pyran-4-yl)methoxy]pyrimidin-2-yl}benzyl)pyridazin-4(1H)-one]	< 100
Cn1cc(-n2ccc(=O)c(Cc3cccc(-c4ncc(OC(F)F)cn4)c3)n2)cn1 [Example 386, 3-{3-[5-(Difluoromethoxy)pyrimidin-2-yl]benzyl}-1-(1-methyl-1H-pyrazol-4-yl)pyridazin-4(1H)-one]	< 100
Cn1cc(-n2ccc(=O)c(Cc3cccc(-c4ncc(OCC5(CF)COC5)cn4)c3)n2)cn1 [Example 387, 3-[3-(5-{[3-(Fluoromethyl)oxetan-3-yl]methoxy}pyrimidin-2-yl)benzyl]-1-(1-methyl-1H-pyrazol-4-yl)pyridazin-4(1H)-one]	< 100

Other lines, results leading:

IC50 [nM]	SMILES
< 100	CCn1cc(-n2ccc(=O)c(Cc3cccc(-c4ncc(OCCn5cccn5)cn4)c3)n2)cn1 [Example 315, 1-(1-ethyl-1H-pyrazol-4-yl)-3-(3-{5-[2-(1H-pyrazol-1-yl)ethoxy]pyrimidin-2-yl}benzyl)pyridazin-4(1H)-one]
< 100	CCn1cc(-n2ccc(=O)c(Cc3cccc(-c4ncc(OCC5(C)COC5)cn4)c3)n2)cn1 [Example 316, 1-(1-ethyl-1H-pyrazol-4-yl)-3-(3-{5-[(3-methyloxetan-3-yl)methoxy]pyrimidin-2-yl}benzyl)pyridazin-4(1H)-one]
< 100	COCCOc1cnc(-c2cccc(Cc3nn(-c4ccc(F)c(F)c4)ccc3=O)c2)nc1 [Example 317, 1-(3,4-difluorophenyl)-3-{3-[5-(2-methoxyethoxy)pyrimidin-2-yl]benzyl}pyridazin-4(1H)-one]
< 100	COCCOc1cnc(-c2cccc(Cc3nn(-c4cc(F)c(F)c(F)c4)ccc3=O)c2)nc1 [Example 318, 3-{3-[5-(2-methoxyethoxy)pyrimidin-2-yl]benzyl}-1-(3,4,5-trifluorophenyl)pyridazin-4(1H)-one]
< 100	COCCOc1cnc(-c2cccc(Cc3nn(-c4cccc(C#N)c4)ccc3=O)c2)nc1 [Example 319, 3-[3-{3-[5-(2-methoxyethoxy)pyrimidin-2-yl]benzyl}-4-oxopyridazin-1(4H)-yl]benzonitrile]
< 100	COCCCOc1cnc(-c2cccc(Cc3nn(-c4ccc(F)c(F)c4)ccc3=O)c2)nc1 [Example 320, 1-(3,4-difluorophenyl)-3-{3-[5-(3-methoxypropoxy)pyrimidin-2-yl]benzyl}pyridazin-4(1H)-one]
< 100	CCOCCOc1cnc(-c2cccc(Cc3nn(-c4ccc(F)c(F)c4)ccc3=O)c2)nc1 [Example 321, 1-(3,4-difluorophenyl)-3-{3-[5-(2-ethoxyethoxy)pyrimidin-2-yl]benzyl}pyridazin-4(1H)-one]
< 100	COCCCOc1cnc(-c2cccc(Cc3nn(-c4cccc(C#N)c4)ccc3=O)c2)nc1 [Example 322, 3-[3-{3-[5-(3-methoxypropoxy)pyrimidin-2-yl]benzyl}-4-oxopyridazin-1(4H)-yl]benzonitrile]
< 100	CCOCCOc1cnc(-c2cccc(Cc3nn(-c4cccc(C#N)c4)ccc3=O)c2)nc1 [Example 323, 3-[3-{3-[5-(2-ethoxyethoxy)pyrimidin-2-yl]benzyl}-4-oxopyridazin-1(4H)-yl]benzonitrile]
< 100	COCCCOc1cnc(-c2cccc(Cc3nn(-c4cc(F)c(F)c(F)c4)ccc3=O)c2)nc1 [Example 324, 3-{3-[5-(3-methoxypropoxy)pyrimidin-2-yl]benzyl}-1-(3,4,5-trifluorophenyl)pyridazin-4(1H)-one]
< 100	CCOCCOc1cnc(-c2cccc(Cc3nn(-c4cc(F)c(F)c(F)c4)ccc3=O)c2)nc1 [Example 325, 3-{3-[5-(2-ethoxyethoxy)pyrimidin-2-yl]benzyl}-1-(3,4,5-trifluorophenyl)pyridazin-4(1H)-one]
< 100	O=c1ccn(-c2ccc(F)c(F)c2)nc1Cc1cccc(-c2ncc(OC3COC3)cn2)c1 [Example 326, 1-(3,4-difluorophenyl)-3-{3-[5-(oxetan-3-yloxy)pyrimidin-2-yl]benzyl}pyridazin-4(1H)-one]
< 100	CC1(COc2cnc(-c3cccc(Cc4nn(-c5ccc(F)c(F)c5)ccc4=O)c3)nc2)COC1 [Example 329, 1-(3,4-difluorophenyl)-3-(3-{5-[(3-methyloxetan-3-yl)methoxy]pyrimidin-2-yl}benzyl)pyridazin-4(1H)-one]
< 100	O=c1ccn(-c2cc(F)cc(F)c2)nc1Cc1cccc(-c2ncc(OC3COC3)cn2)c1 [Example 330]
< 100	O=c1ccn(-c2cc(F)cc(F)c2)nc1Cc1cccc(-c2ncc(OCC3CCOCC3)cn2)c1 [Example 331, 1-(3,5-difluorophenyl)-3-{3-[5-(tetrahydro-2H-pyran-4-ylmethoxy)pyrimidin-2-yl]benzyl}pyridazin-4(1H)-one]
< 100	CCn1cc(-n2ccc(=O)c(Cc3cccc(-c4ncc(OCC5(F)CCNCC5)cn4)c3)n2)cn1 [Example 335, 1-(1-ethyl-1H-pyrazol-4-yl)-3-(3-{5-[(4-fluoropiperidin-4-yl)methoxy]pyrimidin-2-yl}benzyl)pyridazin-4(1H)-one]
< 100	CCn1cc(-n2ccc(=O)c(Cc3cccc(-c4ncc(OCC5CCNCC5)cn4)c3)n2)cn1 [Example 336, 1-(1-ethyl-1H-pyrazol-4-yl)-3-{3-[5-(piperidin-4-ylmethoxy)pyrimidin-2-yl]benzyl}pyridazin-4(1H)-one]
< 100	CCn1cc(-n2ccc(=O)c(Cc3cccc(-c4ncc(OC5CNC5)cn4)c3)n2)cn1 [Example 337, 3-{3-[5-(azetidin-3-yloxy)pyrimidin-2-yl]benzyl}-1-(1-ethyl-1H-pyrazol-4-yl)pyridazin-4(1H)-one]
< 100	CC(c1cccc(-c2ncc(O[C@H]3CCNC[C@H]3F)cn2)c1)c1nn(-c2cnn(C)c2)ccc1=O (stereo partly drawn) [Example 344]
